Experimental data: PMC10229078, “In vitro effects of lapachol and β-lapachone against Leishmania amazonensis” (Brazilian Journal of Medical and Biological Research, 2023)
Converted amounts (≈) assume the structure as drawn.

Tests used:
[1] = system: Leishmania amazonensis promastigotes; experiment: Mitochondria membrane potential (ΔΨm), Rh123 flow cytometry; assay type: cell-based; conditions: for Reduction in ΔΨm: lapachol 76.62 µg/mL, β-lapachone 1.63 µg/mL, H2O2 2 mM; for Variation Index (VI) of Rh123 fluorescence, (MT−MC)/MC: lapachol 76.62 μg/mL, β-lapachone 1.63 μg/mL, PC 2 mM
Experimental: The ΔΨm was determined using on BD FacsCalibur™ flow cytometer and CellQuest Pro software, with a total of 10.000 events acquired, using a mitochondrial-specific green-fluorescent dye Rh123 ([31]). Briefly, L. amazonensis (2×10^7 parasites/mL) were incubated with lapachol (76.62 µg/mL) and β-lapachone (1.63 µg/mL) for 1, 4, and 24 h at 25°C. After washed with PBS, the parasites were incubated with 5 μg/mL Rh123 for 15 min. After the incubation time, the cells were washed and suspended in PBS for additional incubation of 30 min for analysis. The percentage of fluorescence of Rh123, was determined by the (MT/MC)*100 equation, with MT representing the median fluorescence of the treated parasites and the MC the median fluorescence of negative controls. Alteration in ΔΨm was quantified using an index of variation (IV) obtained by the equation IV = (MT - MC)/MC, where negative IV values correspond to depolarization of the mitochondrial membrane. H2O2 (2 mM) was used as a positive control ([32]).

[2] = system: Peritoneal macrophages from BALB/c mice; experiment: Macrophage cytotoxicity, XTT, peritoneal macrophages
Experimental: Peritoneal macrophages from BALB/c mice were obtained as described before and adjusted to 1×10^6 macrophages/mL and plated in 96-well culture plates (TPP™ test plate, Switzerland), followed by 2 h of incubation (5% CO2 at 37°C). […] Cultures were incubated for 24 h at 37°C in 5% CO2, and non-treated cultures were used as viability control. […] After 4 h of incubation in 5% CO2 at 37°C protected from light, the results were measured as absorbance, determined by spectrophotometry (450/620 nm filter, VersaMax™ ELISA microplate reader) ([28]). […] At least three experiments were performed in quadruplicate.

[3] = system: L. amazonensis amastigotes; experiment: Activity on intracellular amastigotes in peritoneal macrophages (infection index); conditions: 24 h; for Inhibition of infection rate of amastigotes (infection reduction): vs untreated infected macrophages
Experimental: (§1) The activity of lapachol and β-lapachone on intracellular amastigotes was made on peritoneal macrophages (5×10^5 per well). Cells were seeded onto round glass coverslips within 24-well plates in RPMI 1640 medium and incubated for 2 h at 37°C in 5% CO2. After that, the proportion of 6 parasites (L. amazonensis) per macrophage were added, and cultures were incubated for 4 h at 37°C in 5% CO2. Free parasites were removed by washing with RPMI 1640 medium. The infected macrophages were incubated with lapachol (82.28, 41.14, and 20.57 µg/mL) and β-lapachone (3.26, 1.63, and 0.815 µg/mL) for 24 h at 37°C. After the incubation time, the coverslips were removed, washed, stained with Fast Panoptic, and fixed on glass slides with Entellan. […] The experiments were done twice in triplicate, and treated uninfected cells were used as the cytotoxicity control and non-treated infected cells were used as the positive control of infection. The number of intracellular amastigotes was determined by counting 200 macrophages by concentration in an optical microscope (binocular biological microscope, mod. BA310E LED, Motic, Spain). The infection index was calculated by multiplying the percentage of infected macrophages by the number of parasites per macrophages ([29]).

[4] = system: L. amazonensis amastigotes
Experimental: as §1

[5] = system: amastigotes of L. (V.) braziliensis (MHOM/BR/94/H-3227); design: method as in ref 18 Teixeira et al.; conditions: 50 µg/mL, ref 18 Teixeira et al.; cited from earlier work
J774A.1 macrophages = experiment: Macrophage cytotoxicity, XTT, J774A.1
[6] = system: L. amazonensis promastigotes; experiment: DNA fragmentation assay, agarose gel electrophoresis; assay type: cell-based, Leishmania amazonensis; conditions: IC50/24 h (lapachol 76.62 µg/mL, β-lapachone 1.63 µg/mL)
Experimental: The presence of DNA fragmentation was evaluated by electrophoresis in agarose gel according to a previous study ([33]). L. amazonensis (1×10^6 promastigotes/mL) was incubated with the IC50 of compounds for 24 h. After validation of IC50 as mentioned above, pellets were re-suspended in digestion buffer (10 mM ethylenediamine tetraacetic acid [EDTA], 50 mM Tris-HCl [pH 8.0] and 0.5% sodium lauryl sulfate), to which 0.5 mg/mL proteinase K was added. The mixture was incubated for 3 h in […] and again for 1 h at 55°C in the presence of 0.1 mg/mL RNase A. DNA material was extracted by phenol/chloroform (1:1) treatment and was precipitated by adding 3 M sodium acetate and ice-cold ethanol (100%). After an overnight incubation at -20°C, the material was centrifuged (13270 g) for 30 min at 25°C temperature. Then, 2.5 volumes of ethanol (70%) were added to the pellet. The material was centrifuged (13270 g) for 15 min again and the pellet was collected, air dried, and re-suspended in Tris-EDTA buffer (50 µL, pH 8.0). DNA aliquots (10 µg) were electrophoresed on 2% agarose gel that contained ethidium bromide (0.5 µg/mL) using Tris-acetate-EDTA buffer (pH 8.0) for 45 min at 100 V and photographed under ultraviolet light. L. amazonensis untreated promastigotes were used as negative control of fragmentation (C-) and promastigotes treated with H2O2 as positive control (C+). […]

[7] = system: Leishmania major promastigotes; design: method as in ref 24 Moreno et al.; conditions: 48 h of incubation, ref 24 Moreno et al.; cited from earlier work
[8] = Macrophage cytotoxicity, XTT, J774A.1; conditions: mouse, J774A.1 macrophages
[9] = Leishmania amazonensis, Macrophage, read-out: Inhibition of infection rate of amastigotes (infection reduction)

## 4-hydroxy-3-(3-methylbut-2-enyl)naphthalene-1,2-dione [lapachol]
[1]; 1 h
  Reduction in ΔΨm: 44%
  Variation Index (VI) of Rh123 fluorescence, (MT−MC)/MC: -0.44
[1]; 4 h
  Reduction in ΔΨm: 69%
  Variation Index (VI) of Rh123 fluorescence, (MT−MC)/MC: -0.69
[1]; 24 h
  Reduction in ΔΨm: 30%
  Variation Index (VI) of Rh123 fluorescence, (MT−MC)/MC: -0.30
[2]; peritoneal macrophages, 24 h
  Murine macrophage cytotoxicity CC50: 41.14 ± 2.17 µg/mL
[3]; 20.57 µg/mL
  Inhibition of infection rate of amastigotes (infection reduction): 34.95%
[3]; 82.28 µg/mL
  Inhibition of infection rate of amastigotes (infection reduction): 83.11%
[4]
  inhibition: 57.6%
[5]
  Inhibition of the infection rate of amastigotes: 88.8%
J774A.1 macrophages; J774A.1, 24 h
  J774A.1 macrophage cytotoxicity CC50: 26.66 ± 8.69 µg/mL
[6]
  DNA fragmentation: promoted DNA fragmentation

## CC1(C)CCC2=C(O1)c1ccccc1C(=O)C2=O [β-lapachone, 2,2-dimethyl-3,4-dihydrobenzo[h]chromene-5,6-dione]
[1]; 1 h
  Reduction in ΔΨm: 15%
  Variation Index (VI) of Rh123 fluorescence, (MT−MC)/MC: -0.15
[1]; 4 h
  Reduction in ΔΨm: 54%
  Variation Index (VI) of Rh123 fluorescence, (MT−MC)/MC: -0.54
[1]; 24 h
  Reduction in ΔΨm: 98%
  Variation Index (VI) of Rh123 fluorescence, (MT−MC)/MC: -0.98
[2]; murine macrophage CC50 / promastigote IC50, 24 h
  Selectivity index (SI CC50/IC50): 1.97
[2]; murine macrophage CC50 / promastigote LD50, 24 h
  Therapeutic selectivity index (TSI CC50/LD50): 4.94
[2]; murine macrophages
  times more selective than lapachol for Leishmania death (TSI): 9.15 times
  times more selective than lapachol for inhibiting the growth of Leishmania culture (SI): 3.65 times
[3]; [9]
  inhibition at 0.815 µg/mL: 80.2%
  inhibition at 1.63 µg/mL: 83.2%
  inhibition at 3.26 µg/mL: 78.5%
[7]
  IC50: 1500 ± 700 nM
J774A.1 macrophages; J774A.1 macrophage CC50 / promastigote IC50, 24 h
  Selectivity index (SI CC50/IC50): 1.95
J774A.1 macrophages; J774A.1 macrophage CC50 / promastigote LD50, 24 h
  Therapeutic selectivity index (TSI CC50/LD50): 4.89
J774A.1 macrophages; J774A.1 macrophages
  times more selective than lapachol for Leishmania death (TSI): 14 times
  times more selective than lapachol for inhibiting the growth of Leishmania culture (SI): 5.6 times
[8]
  CC50 at 24 h: 3.18 ± 0.04 µg/mL (≈ 13.1 µM)
[6]
  DNA fragmentation: promoted DNA fragmentation
